These results are taken from patent publication EP4792813A1, “USE OF […] PREPARATION OF DRUG FOR PREVENTING AND TREATING SEPSIS AND SEPSIS-INDUCED ORGAN DAMAGE” (Lunan Pharmaceutical Group Corporation, priority 2023, dated 2025).

Holding throughout (assay type): in vivo, C57BL/6J mice
Experiment [1] has as its system mice with LPS-induced sepsis. The experiment is described as follows: Serum inflammatory factors (ELISA) in mice with LPS-induced sepsis. As to conditions: for IL-6 / TNF-α: serum, 24 h after LPS, x±s, n = 6; for serum inflammatory factor indices: result in words, compared with the model group. The protocol: (§1) After 1 week of acclimatization, mice were randomly divided into 8 groups: normal group, model group, positive control group, control group 1, control group 2, and compound I low-, medium- and high-dose groups, with 20 mice in each group. […] After the experiment was started, the normal group and model group were intraperitoneally injected with normal saline according to the body weight. The positive control group was intraperitoneally injected with 1 mg/kg dexamethasone. The Compound I low-, medium- and high-dose groups were intraperitoneally injected with 1 mg/kg, 2.5 mg/kg and 5 mg/kg compound I according to the body weight, respectively. The control group 1 was intraperitoneally injected with 5 mg/kg control compound 1 according to the body weight, and the control group 2 was intraperitoneally injected with 5 mg/kg control compound 2 according to the body weight. After 1 h, the normal group was intraperitoneally injected with normal saline according to the body weight, and the model group and each administration group were injected with 20 mg/kg LPS and then dissected 24 h later.
The blood samples were allowed to stand at room temperature for 1 h, followed by centrifugation at 3000 r/min to obtain serum. The serum was divided into two aliquots. One aliquot was processed in accordance with the instructions of TNF-α and IL-1β ELISA kits. Each well was measured at 450 nm using a microplate reader. The OD value of each sample was determined by subtracting the absorbance of the blank control well from the measured value. A standard curve was plotted based on the concentrations and OD values of standard samples to calculate the concentrations of the samples.

For experiment [2], the system named is mice with LPS-induced sepsis. The experiment is described as follows: Serum biochemical parameters (ALT, AST, UREA, CREA-S) in mice with LPS-induced sepsis. As to conditions: for ALT / AST / CREA-S / UREA: serum, 24 h after LPS, x±s, n = 7; for serum ALT, AST, UREA and CREA-S levels: result in words, compared with the model group. More on the design: CREA-S: unit not given here. The procedure:
as §1
A series of operations were performed on the serum in accordance with the instructions of the kits to detect ALT, AST, UREA and CREA-S concentrations.

Experiment [3] concerns mice with LPS-induced sepsis. The experiment is described as follows: HE staining of kidney tissue sections in mice with LPS-induced sepsis. The settings on record: 24 h after intraperitoneal injection of 20 mg/kg LPS, compared with the model group, FIG. 1. The procedure:
as §1
Mouse kidney tissue sections were stained using a hematoxylin-eosin (HE) staining method. First, the baked sections were dewaxed using xylene until the sections became transparent. The dewaxed sections were rinsed with ethanol to remove xylene and then rinsed with distilled water. […]

Experiment [4] deals with mice with LPS-induced sepsis. The experiment is described as follows: 48 h survival rate of mice with LPS-induced sepsis. The settings on record: within 48 h after 20 mg/kg LPS; result in words; FIG. 2. The protocol:
as §1
4.4 After 48 h, the survival rate of the remaining 10 mice in each group was observed.

For experiment [5], the system named is mice with LPS-induced sepsis-associated encephalopathy. The experiment is described as follows: Nissl staining of hippocampus in mice with LPS-induced sepsis-associated encephalopathy. As to conditions: 1, 2.5 and 5 mg/kg i.p. 1 h before 25 mg/kg LPS; 24 h; compared with the model group. The protocol: (§2) After 1 week of acclimatization, 60 male C57BL/6J mice were randomly divided into five groups: normal group, model group, Compound I low-dose group, Compound I medium-dose group and Compound I high-dose group, with 12 mice per group.
(§3) After the experiment was started, the normal group and model group were intraperitoneally injected with normal saline according to the body weight. The Compound I low-, medium- and high-dose groups were intraperitoneally injected with 1 mg/kg, 2.5 mg/kg and 5 mg/kg Compound I according to the body weight, respectively. After 1 h, the normal group was intraperitoneally injected with a corresponding volume of normal saline according to the body weight of the mice, while the model group and each administration group were injected with 25 mg/kg LPS. The administration volume was 10 mL/kg. After 24 h, the mice were anesthetized with pentobarbital sodium. The skull was opened and the brain was harvested, rinsed with normal saline, blotted dry with filter paper, and weighed. The brain index was calculated based on the following formula: Brain index = brain weight/body weight × 100% [formula]
The prepared sections were dried and dewaxed, and then stained with a Nissl staining solution for 90 min. […]

For experiment [6] the test system is unchanged. The experiment is described as follows: Brain index in mice with LPS-induced sepsis-associated encephalopathy. The settings on record: 1, 2.5 and 5 mg/kg i.p. 1 h before 25 mg/kg LPS; 24 h; compared with the model group (p<0.01). The protocol:
as §2, §3

Experiment [7] shares this test system. The experiment is described as follows: Eight-arm maze test in mice with LPS-induced sepsis-associated encephalopathy. As to conditions: compared with the model group. The procedure:
After 1 week of acclimatization, 60 male C57BL/6J mice were randomly divided into five groups: normal group, model group, compound I low-dose group, Compound I medium-dose group and Compound I high-dose group, with 12 mice in each group.
After the experiment was started, the normal group and model group were intraperitoneally injected with normal saline according to the body weight. The Compound I low-, medium- and high-dose groups were intraperitoneally injected with 1 mg/kg, 2.5 mg/kg and 5 mg/kg compound I, respectively. After 1 h, the normal group was intraperitoneally injected with a corresponding volume of normal saline according to the body weight of the mice, while the model group and each administration group were injected with 10 mg/kg LPS, with an administration volume of 10 mL/kg.
Behavioral tests were performed in an automated eight-arm maze. Before the experiment was started, all the mice were required to undergo acclimatization training. The food intake of the mice was restricted daily to facilitate the rapid finding and memorization of food pellets placed in the 1st, 2nd, 4th and 7th arms during the test. On day 1, an equal amount of food pellets was placed in each arm. The mice were placed in the maze and then allowed to explore freely for 300 s before acclimatization was terminated. Starting from day 2, the automatic doors were first closed, and the mice were placed in the center of the maze for 15 s. The automatic doors were then opened to release the mice for testing. The training was terminated when the time reached 300 s or the mice found the food pellets. The training was conducted for a total of five days. Working memory errors were defined as repeated entries by the mice into arms where food pellets had already been found and consumed. Reference memory errors were defined as entries into arms without food pellets. The total number of arm entries was recorded as the total arm entries. The time required for the mice to find all food pellets was defined as the test duration. On the day 7 of the experiment, a formal trial was initiated, and this step unchanged. The frequencies of working memory errors and reference memory errors were calculated based on the recorded working memory errors, reference memory errors and total arm entries.

The test system is the same in experiment [8]. The experiment is described as follows: Novel object recognition test in mice with LPS-induced sepsis-associated encephalopathy. As to conditions: 1, 2.5 and 5 mg/kg i.p. on days 1-3, 7.5 mg/kg LPS on days 1 and 2; compared with the model group; FIG. 6. The procedure: as §2
On day 1 of the experiment, the normal group and model group were intraperitoneally injected with normal saline according to the body weight. The Compound I low-, medium- and high-dose groups were intraperitoneally injected with 1 mg/kg, 2.5 mg/kg and 5 mg/kg Compound I according to the body weight, respectively. After 1 h, the normal group was intraperitoneally injected with a corresponding volume of normal saline according to the body weight of the mice, while the model group and each administration group were injected with 7.5 mg/kg LPS. The administration volume was 10 mL/kg.
On day 2 of the experiment, the operations on day 1 were repeated. […]
The mice were individually placed in a square arena (40 × 40 × 40 cm) and allowed to move freely for 10 min. […] The time and frequency of mice contacting the objects or exploring within 2 cm of the objects (forepaws on the object, nose sniffing, or licking the object) were recorded. The preference index (PI) and discrimination index were calculated. […]

Setting [9] is: 1 mg/kg i.p. 1 h before 20 mg/kg LPS.
Where [10] appears, read: 2.5 mg/kg i.p. 1 h before 20 mg/kg LPS.
Setting [11] is: 5 mg/kg i.p. 1 h before 20 mg/kg LPS.
The mark [12] stands for this setting: 1, 2.5 and 5 mg/kg i.p. 1 h before 10 mg/kg LPS, best effect in medium-dose group, FIG. 5.

Regarding `Cn1c(C(=O)N2CCC(C(=O)Nc3cccc(Cl)c3)CC2)cc2ccccc21` [Compound I, N-(3-chlorophenyl)-1-(1-methyl-1H-indole-2-carbonyl)piperidine-4-carboxamide], in experiment [1] (setting [9]), the IL-6 amounted to 20.10 ± 3.28 pg and the TNF-α stood at 127.00 ± 16.42 pg. For the same molecule, in experiment [1] (setting [10]), the IL-6 turned out to be 17.60 ± 3.20 pg and the TNF-α turned out to be 76.30 ± 6.77 pg. In experiment [1] (setting [11]), this molecule displayed an IL-6 of 17.04 ± 2.94 pg and a TNF-α of 14.00 ± 2.29 pg. Also, in experiment [2] (setting [9]), the ALT is given as 69.44 ± 16.93 U/L, the AST came out at 183.40 ± 37.18 U/L, the CREA-S is given as 21.07 ± 5.89 and the UREA worked out at 35.56 ± 8.88 mmol/L. In experiment [2] (setting [10]), this molecule gave an ALT of 67.83 ± 19.01 U/L, an AST of 180.20 ± 54.87 U/L, a CREA-S of 18.64 ± 6.72 and a UREA of 26.02 ± 9.03 mmol/L. For the same molecule, in experiment [2] (setting [11]), the ALT amounted to 59.61 ± 6.89 U/L, the AST is reported as 137.50 ± 26.26 U/L, the CREA-S worked out at 20.80 ± 7.59 and the UREA turned out to be 22.69 ± 10.33 mmol/L. Besides, the “changes of renal tubules (abnormal dilation of renal tubules, atrophy of epithelial cells and lightening of cytoplasm), HE staining” value in experiment [3] is listed as “significantly ameliorated”. For the same molecule, in experiment [4], the survival rate entry is on record as “significantly improve the survival rate”. In addition, the “Nissl staining of the hippocampus region of the mouse brain tissue” value in experiment [5] is “reduced neuronal pyknosis, recovered cell morphology and normal Nissl bodies”. In experiment [6], the brain index entry was “significantly reduced”. Also, in experiment [7] (setting [12]), the “frequency of reference memory errors” value is listed as “decreased” and the “frequency of working memory errors” value is on record as “decreased”. The test duration entry in experiment [7] (medium- and high-dose groups (2.5 and 5 mg/kg i.p.), 10 mg/kg LPS) is “decreased”. The “total numbers of arm entries” value in experiment [7] (medium- and high-dose groups (2.5 and 5 mg/kg i.p.), 10 mg/kg LPS, most significant reduction in medium-dose group) is “decreased”. Besides, in experiment [8], the discrimination index result is on record as “increased” and the preference index entry is reported as “increased”.
`O=C(Nc1cccc(Cl)c1)C1CCN(C(=O)c2ccc3ccccc3c2)CC1` [Control group 1]: in experiment [1] (setting [11]), the “serum inflammatory factor indices” value is reported as “no significant improvements”, the IL-6 was 24.72 ± 4.03 pg and the TNF-α was 244.20 ± 10.95 pg. Also, in experiment [2] (setting [11]), the “serum ALT, AST, UREA and CREA-S levels” value is on record as “no significant improvements”; the ALT was 78.19 ± 10.95 U/L; the AST amounted to 271.1 ± 25.31 U/L; the UREA was 46.47 ± 4.58 mmol/L.
In the case of `O=C(c1cccc(O)c1)N1CCC(c2nc3cc(Cl)ccc3o2)CC1` [Control group 2], in experiment [1] (setting [11]), the “serum inflammatory factor indices” value is reported as “no significant improvements”, the IL-6 came out at 24.56 ± 3.56 pg and the TNF-α was determined as 238.20 ± 9.79 pg. For the same molecule, in experiment [2] (setting [11]), the “serum ALT, AST, UREA and CREA-S levels” value is reported as “no significant improvements”; the ALT was 77.76 ± 12.51 U/L; the AST was determined as 265.20±31.82 U/L; the CREA-S is 43.99 ± 5.81. Moreover, the UREA in experiment [2] (setting [11]) stood at 47.22 ± 3.39 mmol/L.
In experiment [1] (setting [9]), `C[C@@H]1C[C@H]2[C@@H]3CCC4=CC(=O)C=C[C@]4(C)[C@@]3(F)[C@@H](O)C[C@]2(C)[C@@]1(O)C(=O)CO` [Positive control group, dexamethasone] displayed an IL-6 of 16.49 ± 1.38 pg and a TNF-α of 79.27 ± 4.86 pg. Also, in experiment [2] (setting [9]), the ALT amounted to 58.94 ± 7.12 U/L, the AST is 142.8 ± 21.78 U/L and the UREA is reported as 20.69 ± 5.68 mmol/L.
